According to ChEMBL document CHEMBL1201862, “PubChem BioAssay data set” (2004):
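Protocol summary: plate cells (96-well), add compound at 5 concentrations, incubate 48 h, interpolate endpoints linearly. GI50 is the concentration that inhibits growth by half.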 Calls of active or inactive are those of the source. No stated cut-off is given here; in the data, active = GI50 up to about 1.1 µM and inactive = higher. Starred links: 1 amine or outer side, 2 acyl side, 3 side chain; linkers in the order of their positions; H or OH if unused. Positions of bridges follow the written chain, without caps; N, C: chain ends. Non-standard residues stand in square brackets, D forms with d. Residues, ends and D or L forms follow the SMILES beside them. Chains are numbered I, II in the order given. ξ: configuration not given here. X42 = N=C(N)NCCC[C@H](NC(=N)CCCCCCC(=N)N[C@@H](CCCNC(=N)N)C(=O)[*:2])C(=O)[*:1]; Oic(3aξ,7aξ) = O=C(O)[C@@H]1CC2CCCCC2N1; Igl = N[C@H](C(=O)O)C1Cc2ccccc2C1; Hyp = O=C(O)[C@@H]1C[C@@H](O)CN1

Assays:
Assay in all cases: NCI tumour cell line growth inhibition, 48 h
786-0 = system: 786-0
NCI-H226 = system: NCI-H226
SW-620 = system: SW-620
OVCAR-3 = system: OVCAR-3
PC-3 = system: PC-3
OVCAR-8 = system: OVCAR-8
SK-MEL-5 = system: SK-MEL-5
KM12 = system: KM12
IGROV-1 = system: IGROV-1
HOP-62 = system: HOP-62
CAKI-1 = system: CAKI-1
COLO 205 = system: COLO 205
NCI/ADR-RES = system: NCI/ADR-RES
HOP-92 = system: HOP-92
HCT-15 = system: HCT-15
SN12C = system: SN12C
HL-60 = system: HL-60

Structure (SMILES) | GI50 (786-0) | GI50 (NCI-H226) | GI50 (SW-620) | GI50 (OVCAR-3) | GI50 (PC-3) | GI50 (OVCAR-8) | GI50 (SK-MEL-5) | GI50 (KM12) | GI50 (IGROV-1) | GI50 (HOP-62) | GI50 (CAKI-1) | GI50 (COLO 205) | GI50 (NCI/ADR-RES) | GI50 (HOP-92) | GI50 (HCT-15) [µM] | GI50 (SN12C) | GI50 (HL-60)
CNCCCNC(=S)Cn1cc(C)c(=O)[nH]c1=O | > 44.3 µM (inactive) | > 59 µM (inactive) | > 56.4 µM (inactive) | > 48.9 µM (inactive) | > 45.5 µM (inactive) | > 26.6 µM (inactive) | > 21.3 µM (inactive) | > 48.1 µM (inactive) | > 39.5 µM (inactive) | > 54.3 µM (inactive) | 24.9 µM (inactive) | > 48.8 µM (inactive) | > 57.8 µM (inactive) | 34.4 µM (inactive) | > 42.7 | > 100 µM (inactive) | –
CCCC(=O)NC1CCc2cc(OC)c(OC)c(OC)c2-c2ccc(OC)c(=O)cc21 (stereo not given) | 0.000652 µM (active) | 0.000771 µM (active) | 0.000481 µM (active) | 0.000384 µM (active) | 0.000731 µM (active) | 0.00252 µM (active) | 0.000356 µM (active) | 0.000449 µM (active) | 0.000828 µM (active) | 0.000679 µM (active) | – | 0.000235 µM (active) | 0.118 µM (active) | 0.447 µM (active) | 0.00637 | 0.000782 µM (active) | 0.000321 µM (active)
Nc1nc(-c2cccs2)cs1 | > 100 µM (inactive) | – | > 100 µM (inactive) | > 100 µM (inactive) | 67.9 µM (inactive) | 58.7 µM (inactive) | 73.3 µM (inactive) | 81.7 µM (inactive) | 47.3 µM (inactive) | > 100 µM (inactive) | > 100 µM (inactive) | 88.1 µM (inactive) | 91 µM (inactive) | 26.4 µM (inactive) | 83.4 | > 100 µM (inactive) | > 100 µM (inactive)
CC1(C)[C@@H]2CC[C@@]1(C)CN(CCC[N+](C)(C)C)C2 | > 100 µM (inactive) | > 100 µM (inactive) | > 100 µM (inactive) | > 100 µM (inactive) | > 100 µM (inactive) | > 100 µM (inactive) | > 100 µM (inactive) | > 100 µM (inactive) | > 100 µM (inactive) | > 100 µM (inactive) | > 100 µM (inactive) | > 100 µM (inactive) | > 100 µM (inactive) | > 100 µM (inactive) | > 100 | > 100 µM (inactive) | –
COc1ccc(/N=C2/C(=N/c3ccc(OC)cc3)N(c3ccccc3)C(=S)N2N=C=C2Sc3ccccc3N2C)cc1 | > 100 µM (inactive) | > 100 µM (inactive) | > 100 µM (inactive) | > 100 µM (inactive) | > 100 µM (inactive) | > 100 µM (inactive) | > 100 µM (inactive) | > 100 µM (inactive) | > 100 µM (inactive) | 52.5 µM (inactive) | > 100 µM (inactive) | > 100 µM (inactive) | > 100 µM (inactive) | 47.3 µM (inactive) | > 100 | > 100 µM (inactive) | –
S=C(NN=C1NCCCCN1)Nc1ccc(Cl)cc1 | 7.35 µM (inactive) | > 100 µM (inactive) | 25.4 µM (inactive) | 35.8 µM (inactive) | 13.9 µM (inactive) | 10.3 µM (inactive) | 5.36 µM (inactive) | 14.5 µM (inactive) | 16 µM (inactive) | 11 µM (inactive) | < 0.01 µM (active) | 13.1 µM (inactive) | 23.4 µM (inactive) | 29.8 µM (inactive) | 6.4 | – | 8.18 µM (inactive)
CCOS(C)(=O)=O [METHANESULFONIC ACID ETHYL ESTER] | > 100 µM (inactive) | > 100 µM (inactive) | > 100 µM (inactive) | > 100 µM (inactive) | > 100 µM (inactive) | > 100 µM (inactive) | > 100 µM (inactive) | > 100 µM (inactive) | > 100 µM (inactive) | – | > 100 µM (inactive) | > 100 µM (inactive) | > 100 µM (inactive) | 17 µM (inactive) | > 100 | > 100 µM (inactive) | > 100 µM (inactive)
N#Cc1c(-c2ccc([N+](=O)[O-])cc2)cc(-c2ccc(Nc3ccnc4cc(C(F)(F)F)ccc34)cc2)nc1N | 4.1 µM (inactive) | > 48.3 µM (inactive) | 8.3 µM (inactive) | 12.9 µM (inactive) | 18.9 µM (inactive) | 20.1 µM (inactive) | 25.5 µM (inactive) | 7.19 µM (inactive) | 8.53 µM (inactive) | 21.3 µM (inactive) | 18.5 µM (inactive) | 28.3 µM (inactive) | 8.89 µM (inactive) | 20.8 µM (inactive) | 5.96 | 17.9 µM (inactive) | –
Cc1ccc2c(c1)C=CC(C#N)N2C(=O)Oc1ccccc1 (stereo not given) | 43.7 µM (inactive) | 31 µM (inactive) | 30.5 µM (inactive) | – | 26.3 µM (inactive) | 17.4 µM (inactive) | 24.3 µM (inactive) | 17.1 µM (inactive) | 36 µM (inactive) | – | 57.4 µM (inactive) | 25.9 µM (inactive) | 20.2 µM (inactive) | 30.2 µM (inactive) | 21.1 | 35.8 µM (inactive) | 18.9 µM (inactive)
N=C(N)NCCC[C@H](NC(=O)[C@@H]1CC2CCCCC2N1C(=O)[C@@H](NC(=O)[C@H](CO)NC(=O)[C@@H](NC(=O)CNC(=O)[C@@H]1CCCN1C(=O)[C@H](CCCNC(=N)N)NC(=O)[C@H](CCCNC(=N)N)NC(=N)CCCCCCC(=N)N[C@@H](CCCNC(=N)N)C(=O)N[C@@H](CCCNC(=N)N)C(=O)N1CCC[C@H]1C(=O)N1C[C@H](O)C[C@H]1C(=O)NCC(=O)N[C@H](C(=O)N[C@@H](CO)C(=O)N[C@H](C(=O)N1C2CCCCC2C[C@H]1C(=O)N[C@@H](CCCNC(=N)N)C(=O)O)C1Cc2ccccc2C1)C1Cc2ccccc2C1)C1Cc2ccccc2C1)C1Cc2ccccc2C1)C(=O)O (stereo not given in full) (I: RP[Hyp]G[Igl]S[Igl][Oic(3aξ,7aξ)]R-OH / II: RPG[Igl]S[Igl][Oic(3aξ,7aξ)]R-OH; linker I:N-II:N via X42) | 2.99 µM (inactive) | – | 2.28 µM (inactive) | 1.79 µM (inactive) | 1.62 µM (inactive) | – | 1.73 µM (inactive) | 2.07 µM (inactive) | 2.44 µM (inactive) | 2.23 µM (inactive) | 2.1 µM (inactive) | 1.69 µM (inactive) | 2.9 µM (inactive) | 2.21 µM (inactive) | 2.22 | 2.07 µM (inactive) | 0.15 µM (active)
O=C1NC(N2CCOCC2)=N/C1=C\c1ccc(O)cc1 | > 100 µM (inactive) | > 100 µM (inactive) | > 100 µM (inactive) | > 100 µM (inactive) | > 100 µM (inactive) | > 100 µM (inactive) | – | > 100 µM (inactive) | > 100 µM (inactive) | > 100 µM (inactive) | > 100 µM (inactive) | > 100 µM (inactive) | > 100 µM (inactive) | > 100 µM (inactive) | > 100 | > 100 µM (inactive) | > 100 µM (inactive)
O=C(O)C1C(=O)Oc2c(cccc2[N+](=O)[O-])C1O (stereo not given) | > 100 µM (inactive) | > 100 µM (inactive) | > 100 µM (inactive) | > 100 µM (inactive) | > 100 µM (inactive) | > 100 µM (inactive) | > 100 µM (inactive) | – | > 100 µM (inactive) | > 100 µM (inactive) | > 100 µM (inactive) | > 100 µM (inactive) | > 100 µM (inactive) | > 100 µM (inactive) | > 100 | > 100 µM (inactive) | > 100 µM (inactive)
CCOC(=O)c1csc(NC(=O)CN2CCOCC2)n1 | – | – | > 100 µM (inactive) | > 100 µM (inactive) | > 100 µM (inactive) | > 100 µM (inactive) | > 100 µM (inactive) | > 100 µM (inactive) | > 100 µM (inactive) | > 100 µM (inactive) | > 100 µM (inactive) | > 100 µM (inactive) | > 100 µM (inactive) | > 100 µM (inactive) | > 100 | – | > 100 µM (inactive)
Nn1c(CNc2ccc(-c3nnc(Nc4ccc(Cl)cc4)n3N)cc2)nnc1Nc1ccc(Cl)cc1 | > 100 µM (inactive) | > 100 µM (inactive) | > 100 µM (inactive) | – | > 100 µM (inactive) | – | > 100 µM (inactive) | > 100 µM (inactive) | > 100 µM (inactive) | 34.1 µM (inactive) | > 100 µM (inactive) | > 100 µM (inactive) | > 100 µM (inactive) | > 100 µM (inactive) | > 100 | > 100 µM (inactive) | –
CC(=O)OC[C@H]1O[C@@H](O[C@H]2[C@H](OC(C)=O)C=CO[C@@H]2COC(C)=O)C(OC(C)=O)[C@H]2OC(C)(C)O[C@H]21 (stereo not given in full) | > 100 µM (inactive) | > 100 µM (inactive) | 64.3 µM (inactive) | > 100 µM (inactive) | > 100 µM (inactive) | > 100 µM (inactive) | 58.9 µM (inactive) | > 100 µM (inactive) | > 100 µM (inactive) | > 100 µM (inactive) | > 100 µM (inactive) | > 100 µM (inactive) | > 100 µM (inactive) | 52.8 µM (inactive) | > 100 | > 100 µM (inactive) | –
Cc1cn2c(C)csc2c1P(=O)(OC(C)C)OC(C)C | > 100 µM (inactive) | – | > 100 µM (inactive) | > 100 µM (inactive) | > 100 µM (inactive) | > 100 µM (inactive) | > 100 µM (inactive) | > 100 µM (inactive) | > 100 µM (inactive) | > 100 µM (inactive) | > 100 µM (inactive) | > 100 µM (inactive) | > 100 µM (inactive) | > 100 µM (inactive) | > 100 | > 100 µM (inactive) | > 100 µM (inactive)
